Legend:
[1] = Cytotoxicity against human MOLT4 cells assessed as cell growth at 10^-5 M after 48 hrs by SRB assay; assay type: functional; conditions: MOLT-4, 48 h, read-out: Activity
A549 = assay: Cytotoxicity against human A549 cells assessed as cell growth at 10^-5 M after 48 hrs by SRB assay; assay type: functional; conditions: A549, 48 h, read-out: Activity
[2] = Cytotoxicity against human HOP92 cells assessed as cell growth at 10^-5 M after 48 hrs by SRB assay; assay type: functional; conditions: HOP-92, 48 h, read-out: Activity
NCI-H226 = assay: Cytotoxicity against human NCI-H226 cells assessed as cell growth at 10^-5 M after 48 hrs by SRB assay; assay type: functional; conditions: NCI-H226, 48 h, read-out: Activity
NCI-H460 [3] = assay: Cytotoxicity against human NCI-H460 cells assessed as cell growth at 10^-5 M after 48 hrs by SRB assay; assay type: functional; conditions: NCI-H460, 48 h, read-out: Activity
NCI-H522 [4] = assay: Cytotoxicity against human NCI-H522 cells assessed as cell growth at 10^-5 M after 48 hrs by SRB assay; assay type: functional; conditions: NCI-H522, 48 h, read-out: Activity
[5] = Cytotoxicity against human HCT116 cells assessed as cell growth at 10^-5 M after 48 hrs by SRB assay; assay type: functional; conditions: HCT-116, 48 h, read-out: Activity
[6] = Cytotoxicity against human HCT15 cells assessed as cell growth at 10^-5 M after 48 hrs by SRB assay; assay type: functional; conditions: HCT-15, 48 h, read-out: Activity
HT-29 = assay: Cytotoxicity against human HT-29 cells assessed as cell growth at 10^-5 M after 48 hrs by SRB assay; assay type: functional; conditions: HT-29, 48 h, read-out: Activity
[7] = Cytotoxicity against human SF295 cells assessed as cell growth at 10^-5 M after 48 hrs by SRB assay; assay type: functional; conditions: SF-295, 48 h, read-out: Activity
[8] = Cytotoxicity against human OVCAR8 cells assessed as cell growth at 10^-5 M after 48 hrs by SRB assay; assay type: functional; conditions: OVCAR-8, 48 h, read-out: Activity
786-0 = assay: Cytotoxicity against human 786-0 cells assessed as cell growth at 10^-5 M after 48 hrs by SRB assay; assay type: functional; conditions: 786-0, 48 h, read-out: Activity
ACHN [9] = assay: Cytotoxicity against human ACHN cells assessed as cell growth at 10^-5 M after 48 hrs by SRB assay; assay type: functional; conditions: read-out: Activity
[10] = Cytotoxicity against human RXF393 cells assessed as cell growth at 10^-5 M after 48 hrs by SRB assay; assay type: functional; conditions: RXF 393, 48 h, read-out: Activity
[11] = Cytotoxicity against human Hs 578T cells assessed as cell growth at 10^-5 M after 48 hrs by SRB assay; assay type: functional; conditions: read-out: Activity
T47D = assay: Cytotoxicity against human T47D cells assessed as cell growth at 10^-5 M after 48 hrs by SRB assay; assay type: functional; conditions: read-out: Activity
NCI-H460 [12] = assay: Cytotoxicity against human NCI-H460 cells after 48 hrs by SRB assay; assay type: functional; conditions: NCI-H460, 48 h
NCI-H522 [13] = assay: Cytotoxicity against human NCI-H522 cells after 48 hrs by SRB assay; assay type: functional; conditions: NCI-H522, 48 h
[14] = Cytotoxicity against human HCT116 cells after 48 hrs by SRB assay; assay type: functional; conditions: HCT-116, 48 h
[15] = Cytotoxicity against human SF268 cells after 48 hrs by SRB assay; assay type: functional; conditions: SF-268, 48 h
[16] = Cytotoxicity against human LOXIMVI cells after 48 hrs by SRB assay; assay type: functional; conditions: LOX IMVI
MDA-MB-435 = assay: Cytotoxicity against human MDA-MB-435 cells after 48 hrs by SRB assay; assay type: functional; conditions: MDA-MB-435, 48 h
[17] = Cytotoxicity against human UACC62 cells after 48 hrs by SRB assay; assay type: functional; conditions: UACC-62, 48 h
[18] = Cytotoxicity against human OVCAR5 cells after 48 hrs by SRB assay; assay type: functional; conditions: OVCAR-5, 48 h, read-out: LC50 (the source's name)
[19] = Cytotoxicity against human NCI-ADR-RES cells after 48 hrs by SRB assay; assay type: functional
[20] = Cytotoxicity against human SKOV3 cells after 48 hrs by SRB assay; assay type: functional; conditions: SK-OV-3, 48 h
ACHN [21] = assay: Cytotoxicity against human ACHN cells after 48 hrs by SRB assay; assay type: functional
[22] = Cytotoxicity against human Caki1 cells after 48 hrs by SRB assay; assay type: functional; conditions: CAKI-1, 48 h
[23] = Cytotoxicity against human TK10 cells after 48 hrs by SRB assay; assay type: functional; conditions: TK-10, 48 h
[24] = Cytotoxicity against human PC3 cells after 48 hrs by SRB assay; assay type: functional; conditions: PC-3, 48 h
MDA-MB-231 = assay: Cytotoxicity against human MDA-MB-231 cells after 48 hrs by SRB assay; assay type: functional; conditions: MDA-MB-231, 48 h
[25] = Cytotoxicity against human BT549 cells after 48 hrs by SRB assay; assay type: functional; conditions: BT-549, 48 h
Albumin [26] = target: T1, Albumin (Homo sapiens, UniProt P02768); assay: Binding affinity to human serum albumin at 0.25 to 2 uM at 303 K by fluorescence microscopic analysis in the presence of ibuprofen; assay type: ADME; conditions: isolated protein
T1 sequence (P02768 whole entry): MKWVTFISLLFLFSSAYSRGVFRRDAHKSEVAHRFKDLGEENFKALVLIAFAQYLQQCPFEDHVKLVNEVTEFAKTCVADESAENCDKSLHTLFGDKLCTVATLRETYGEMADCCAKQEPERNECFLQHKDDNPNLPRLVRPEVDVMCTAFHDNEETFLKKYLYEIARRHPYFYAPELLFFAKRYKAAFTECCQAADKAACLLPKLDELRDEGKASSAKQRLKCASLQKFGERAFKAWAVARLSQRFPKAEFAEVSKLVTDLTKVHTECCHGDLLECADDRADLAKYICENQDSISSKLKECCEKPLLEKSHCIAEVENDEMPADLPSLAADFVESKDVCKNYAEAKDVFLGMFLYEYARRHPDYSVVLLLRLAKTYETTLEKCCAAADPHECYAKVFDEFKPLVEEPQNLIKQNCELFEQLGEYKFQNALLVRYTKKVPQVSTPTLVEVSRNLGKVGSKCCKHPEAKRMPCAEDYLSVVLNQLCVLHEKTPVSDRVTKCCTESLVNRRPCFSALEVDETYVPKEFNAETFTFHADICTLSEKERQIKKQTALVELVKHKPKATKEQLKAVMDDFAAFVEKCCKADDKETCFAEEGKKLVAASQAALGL

Albumin [27] = target: T1, Albumin; assay: Binding affinity to human serum albumin at 0.25 to 2 uM at 303 K by fluorescence microscopic analysis in the presence of phenylbutazone; assay type: ADME; conditions: isolated protein
Albumin [28] = target: T1, Albumin; assay: Binding affinity to human serum albumin at 0.25 uM at 303 K by fluorescence microscopic analysis in the presence of Zn2+; assay type: ADME; conditions: isolated protein
K562 = assay: Antiproliferative activity against human K562 cells at 10'5 M; assay type: functional
NCI-H460 [29] = assay: Antiproliferative activity against human NCI-H460 cells at 10'5 M; assay type: functional
[30] = Antiproliferative activity against human NCI-ADR-RES cells at 10'5 M; assay type: functional
[31] = Antiproliferative activity against human IGROV1 cells at 10'5 M; assay type: functional, IGROV-1
[32] = read-out: LC50 (the source's name)

`O=C(/C=C/c1ccccc1)n1c(-c2ccc(Cl)cc2)nc2ccccc21` gave a growth at 10 µM [1] of 21.9%, a growth at 10 µM (A549) of -4.99% and a growth at 10 µM [2] of -39.4%. It also gave a growth at 10 µM (NCI-H226) of -55.3%, a growth at 10 µM (NCI-H460 [3]) of 0.54% and a growth at 10 µM (NCI-H522 [4]) of -72.4%. For the same compound, the growth at 10 µM [5] was -71.5%, the growth at 10 µM [6] was -24.8% and the growth at 10 µM (HT-29) was -40.6%. The growth at 10 µM [7] was -52%, the growth at 10 µM [8] was -31.3% and the growth at 10 µM (786-0) was -17.6%. For the same compound, the growth at 10 µM (ACHN [9]) was -49.9%, the growth at 10 µM [10] was -65.2% and the growth at 10 µM [11] was 20%. The growth at 10 µM (T47D) was -4.25%, the GI50 (NCI-H460 [12]) was 1.96 µM and the TGI (NCI-H460 [12]) was 6.52 µM. The CC50 (NCI-H460 [12]; [32]) was 25.5 µM, the GI50 (NCI-H522 [13]) was 1.53 µM and the TGI (NCI-H522 [13]) was 3.5 µM. It also gave a CC50 (NCI-H522 [13]; [32]) of 8.04 µM, a GI50 [14] of 1.8 µM and a TGI [14] of 3.45 µM. It also gave a CC50 [14, 32] of 6.61 µM, a GI50 [15] of 1.45 µM and a TGI [15] of 5.03 µM. It also gave a CC50 [15, 32] of 27.9 µM, a GI50 [16] of 1.6 µM and a TGI [16] of 3.22 µM. For the same compound, the CC50 [16, 32] was 6.5 µM, the GI50 (MDA-MB-435) was 1.9 µM and the TGI (MDA-MB-435) was 5.05 µM. It also gave a CC50 (MDA-MB-435; [32]) of 19.6 µM, a GI50 [17] of 1.47 µM and a TGI [17] of 3.42 µM. The CC50 [17, 32] was 7.93 µM, the CC50 [18] was 49.7 µM and the GI50 [19] was 0.75 µM. It also gave a TGI [19] of 10.3 µM, a CC50 [19, 32] of 62.1 µM and a GI50 [20] of 1.49 µM. It also gave a TGI [20] of 61.3 µM, a CC50 [20, 32] of over 100 µM and a GI50 (ACHN [21]) of 1.17 µM. It also gave a TGI (ACHN [21]) of 2.56 µM, a CC50 (ACHN [21]; [32]) of 5.62 µM and a GI50 [22] of 1.18 µM. It also gave a TGI [22] of 10 µM, a CC50 [22, 32] of 31.7 µM and a GI50 [23] of 2.35 µM. The TGI [23] was 7.93 µM, the CC50 [23, 32] was 28 µM and the GI50 [24] was 1.91 µM. The TGI [24] was 6.73 µM, the CC50 [24, 32] was 36.3 µM and the GI50 (MDA-MB-231) was 1.88 µM. For the same compound, the TGI (MDA-MB-231) was 5.18 µM, the CC50 (MDA-MB-231; [32]) was 25.4 µM and the GI50 [25] was 1.67 µM. For the same compound, the TGI [25] was 3.22 µM, the CC50 [25, 32] was 6.18 µM and the K (Albumin [26]) was 5.63 ×10³ /M. For the same compound, the K (Albumin [27]) was 3.5 ×10³ /M, the K (Albumin [28]) was 2.26 ×10³ /mol and the “growth inhibition (GI)” value (K562) was 60.22%. The “growth inhibition (GI)” value (NCI-H460 [29]) was 99.46%, the “growth inhibition (GI)” value [30] was 89.22% and the “growth inhibition (GI)” value [31] was 89.62%.

— ChEMBL document CHEMBL3769371, “1-[(2E)-3-Phenylprop-2-enoyl]-1H-benzimidazoles as anticancer agents: synthesis, crystal structure analysis and binding studies of the most potent anticancer molecule with serum albumin” (Medchemcomm, 2015)
